Assay results published in patent publication US7022716B2, “Cyclic amine phenyl beta-3 adrenergic receptor agonists” (Wyeth, priority 2000, dated 2006).

What was measured:
β3 Knockout(KO) Mice = assay: Thermogenesis (Oxymax indirect calorimetry) in β3 knockout mice; details: percent increase in thermogenesis over baseline; female FVB β3 knockout mice; i.p. 0.1-20 mg/kg or oral 1.0-30 mg/kg
[1] = molecular target: T1, human β3 adrenergic receptor (Homo sapiens, UniProt P13945); assay: cAMP (SPA) response in CHO cells transfected with human β3 adrenergic receptor; assay type: cell-based; set-up: key: fraction of maximal isoproterenol (10^-5 M) response; details: maximal response relative to maximal response of isoproterenol at 10^-5 M
T1 construct: Full length β3 AR clones (402 amino acids) containing the last 6 amino acids of hβ3-AR are prepared; expressed in transfected cells; host or cells: CHO (Chinese hamster ovary) cells
Outline: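 Reactions were stopped with 0.2N HCl and neutralised, and cAMP was measured by SPA. Activity is expressed as percent of the maximal 10^−5 M isoproterenol response.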

β3 Transgenic(Tg) Mice = assay: Thermogenesis (Oxymax indirect calorimetry) in β3 transgenic mice; details: percent increase in thermogenesis over baseline; female FVB β3 transgenic mice; i.p. 0.1-20 mg/kg or oral 1.0-30 mg/kg

T1 sequence (P13945 whole entry): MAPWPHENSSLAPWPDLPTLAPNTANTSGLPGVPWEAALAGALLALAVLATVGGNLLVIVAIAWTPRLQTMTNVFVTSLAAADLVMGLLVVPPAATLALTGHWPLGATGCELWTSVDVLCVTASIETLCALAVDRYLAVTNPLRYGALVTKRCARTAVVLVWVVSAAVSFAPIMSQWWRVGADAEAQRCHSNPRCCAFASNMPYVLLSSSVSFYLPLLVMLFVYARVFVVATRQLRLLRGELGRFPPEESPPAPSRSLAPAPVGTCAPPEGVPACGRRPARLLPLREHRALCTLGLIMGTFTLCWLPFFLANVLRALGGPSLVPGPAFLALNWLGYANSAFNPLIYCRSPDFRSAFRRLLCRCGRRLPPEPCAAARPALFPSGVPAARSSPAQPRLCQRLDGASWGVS

| melting point | IA(β3) [1] | SMILES | Thermogenesis (KO mice) (β3 Knockout(KO) Mice) | Thermogenesis (Tg mice) (β3 Transgenic(Tg) Mice) |
| --- | --- | --- | --- | --- |
| > 170 °C (dec.) | 1.3 | CCOC(=O)C(=Cc1ccc(N2CCC(NC[C@H](O)c3ccc(O)c(NS(C)(=O)=O)c3)CC2)cc1)C(=O)O [Example 189, 2-(4-{4-[(2R)-2-Hydroxy-2-(4-hydroxy-3-methanesulfonylamino-phenyl)-ethylamino]-piperidin-1-yl}-benzylidene)-malonic acid monoethyl ester] | 6 ± 3% | 33 ± 7% |
| > 75 °C (dec.) | 1.12 | CS(=O)(=O)Nc1cc([C@@H](O)CNC2CCN(c3ccc(C(N)=O)cc3)CC2)ccc1O [Example 190, 4-{4-[(2R)-2-Hydroxy-2-(4-hydroxy-3-methanesulfonylamino-phenyl)-ethylamino]-piperidin-1-yl}-benzamide] | – | – |
| 220 °C | 1.36 | CS(=O)(=O)Nc1cc([C@@H](O)CNC2CCN(c3ccc(/C=C/C(=O)O)cc3)CC2)ccc1O [Example 210, (2E)-3-(4-{4-[(2R)-2-Hydroxy-2-(4-hydroxy-3-methanesulfonylamino-phenyl)-ethylamino]-piperidin-1-yl}-phenyl)-acrylic acid] | – | – |

The next lines start with the compound.

| SMILES | melting point | IA(β3) [1] | Thermogenesis (KO mice) (β3 Knockout(KO) Mice) | Thermogenesis (Tg mice) (β3 Transgenic(Tg) Mice) |
| --- | --- | --- | --- | --- |
| CS(=O)(=O)Nc1cc([C@@H](O)CNC2CCN(c3ccc(C(=O)O)cc3)CC2)ccc1O [Example 186, 4-{4-[(2R)-2-Hydroxy-2-(4-hydroxy-3-methanesulfonylamino-phenyl)-ethylamino]-piperidin-1-yl}-benzoic acid] | > 85 °C (dec.) | 1.1 | 16 ± 7% | 77 ± 12% |
| CCOC(=O)c1ccc(N2CCC(NC[C@H](O)c3ccc(O)c(NS(C)(=O)=O)c3)CC2)cc1 [Example 180, {4-[(2R)-2-Hydroxy-2-(4-hydroxy-3-methanesulfonylamino-phenyl)-ethylamino]-piperidin-1-yl}-benzoic acid ethyl ester] | – | 1 | 9 ± 5% | 42 ± 4% |
| CS(=O)(=O)Nc1cc(C(O)CNC2CCN(c3ccc(CC4SC(=O)NC4=O)cc3)CC2)ccc1O [Example 84, N-[5-((2R)-2-{1-[4-(2,4-Dioxo-thiazolidin-5-ylmethyl}-phenyl]-piperidin-4-ylamino}-1-hydroxy-ethyl)-2-hydroxy-phenyl]-methanesulfonamide] | > 180 °C (dec.) | – | −2 ± 4% | 30 ± 4% |
| CCOC(=O)c1ccc(N2CCC(NC[C@H](O)COc3cccc4[nH]c(=O)[nH]c34)CC2)cc1 [Example 179] | > 170 °C (dec.) | 0.85 | – | – |
| CS(=O)(=O)Nc1cc(C(O)CNC2CCN(c3ccc(CC4NC(=O)NC4=O)cc3)CC2)ccc1O (stereo not drawn) [Example 87, N-[5-(2-{1-[4-(2,5-Dioxo-imidazolidin-4-ylmethyl)-phenyl]-piperidin-4-ylamino}-1-hydroxy-ethyl)-2-hydroxy-phenyl]-methanesulfonamide] | > 105 °C (dec.) | 1 | – | – |
| CS(=O)(=O)Nc1cc([C@@H](O)CNC2CCN(c3ccc(CC(=O)O)cc3)CC2)ccc1O [Example 182, (4-{4-[(2R)-2-Hydroxy-2-(4-hydroxy-3-methanesulfonylamino-phenyl)-ethylamino]-piperidin-1-yl}-phenyl)-acetic acid] | > 140 °C (dec.) | 0.86 | – | – |
